{"source": "paper PMC5751249", "about": "“Anti-Diabetic Effect of Organo-Chalcogen (Sulfur and Selenium) Zinc Complexes with Hydroxy-Pyrone Derivatives on Leptin-Deficient Type 2 Diabetes Model ob/ob Mice” (International Journal of Molecular Sciences, 2017)", "key": {"[1]": {"system": "type 2 diabetic ob/ob mice", "assay": "Oral glucose tolerance test (OGTT) after 28 days treatment", "format": "in vivo", "description": "After treatment with [Zn(hmpt)2] or [Zn(hmps)2] for 28 days, OGTTs were performed. The ob/ob mice and +/+ mice were fasted for 12-h and glucose (1 g/kg body weight) was given orally. Blood samples were obtained from the tail vein at 0, 15, 30, 45, 60, 90, and 120 min after glucose administration. Blood glucose concentrations were measured using a Glucocard."}, "[2]": {"system": "type 2 diabetic ob/ob mice", "assay": "Triglyceride and glycogen contents in the liver", "format": "in vivo", "details": "ob/ob mice after 28 days oral treatment", "description": "Lipids in the liver were extracted according to modified Folch method. TG in the extracted lipids was detected using the triglyceride E test wako (Wako Pure Chemicals Co., Osaka, Japan). Glycogen in the liver was extracted with a strong base (30% KOH aq). Then, ethanol precipitation methods (using 95% ethanol and saturated Na2SO4), hydrolysis, and neutralization (with 2.4 M HCl aq and 0.8 M NaOH aq) of the glycogen extracts were performed, resulting in degradation to glucose solution. To detect the glucose levels in the solution using the glucose CII test wako (Wako Pure Chemicals Co., Osaka, Japan), glycogen levels in the liver were estimated. Because the liver sample of normal mice was used up during TG detection and ICP-MS analysis, glycogen content in the liver could not be detected."}, "[3]": {"system": "type 2 diabetic ob/ob mice", "format": "in vivo", "description": "(§1) After OGTT, HbA1c levels were measured in blood obtained from the mouse tail vein using an immunoassay with a DCA 2000 analyzer (Bayer-Sankyo Co., Ltd., Tokyo, Japan). The mice were subjected to a 12-h fast and blood samples were collected from the orbital vein or postcaval vein under isoflurane anesthesia using heparinized tools. Collected samples were then centrifuged at 650× g for 10 min at 4 °C, and the resultant plasma samples were used to analyze various biochemical parameters. The levels of AST, ALT, BUN, TG, T-CHO, and ALP in plasma samples were determined using a Fuji Dry Chem system. The plasma levels of insulin and adiponectin were determined using an ultra-sensitive Mouse Insulin ELISA Kit (Morinaga Institute of Biological Science, Inc., Kanagawa, Japan) and an adiponectin immunoassay kit (R&D Systems Inc., Minneapolis, MN, USA), respectively. After collecting the blood samples, mice were subjected to dissection under isoflurane anesthesia, and the resultant tissue samples were washed in saline. Each of the samples was dehydrated for a week in desiccators, weighed, and then heated in 5% HNO3 (5 mL) for 5 h at 110 °C in a closed system. The resultant solution was centrifuged at 1250× g for 15 min, and the supernatant was diluted using 5% HNO3. Both Zn and Se concentrations in organs were determined with an ICP-MS Agilent 7700x/Mass Hunter instrument (Agilent Technologies Inc., Santa Clara, CA, USA). The Zn and Se concentrations in each sample were calculated using linear regression of the standard curves prepared from standard solutions of the respective trace elements."}, "[4]": {"system": "type 2 diabetic ob/ob mice", "assay": "Histopathology and morphometric analysis of pancreas and liver (HE staining)", "format": "in vivo", "details": "14-week-old mice", "description": "Excised pancreas and liver from 14-week-old mice were immediately fixed in 10% buffered formalin for a week, sectioned at a thickness of 3 μm, and stained with HE for histopathological examination. HE-stained tissue sections were scanned using a Moticam T2 (Shimadzu Co., Kyoto, Japan) to prepare digital images. Both pancreatic islet area and glycogen and fat deposition areas were calculated with the dedicated image processing software WinROOF (Mitani Corp., Tokyo, Japan)."}, "[5]": {"system": "Isolated male Wistar rat epididymal adipocytes", "assay": "Glucose uptake into adipocytes (in vitro insulin-mimetic activity)", "format": "cell-based", "details": "20 μM Zn complex, means ± SDs, three runs", "description": "The in vitro insulin-mimetic activities of Zn complexes were determined by the inhibition of FFA release from adipocytes and increase of glucose uptake into adipocytes. Isolated male Wistar rat epididymal adipocytes (1.0 × 10^6 cells/mL) were prepared and pre-incubated separately with various concentrations of the different Zn complexes in 5 mM glucose in Krebs-Ringer bicarbonate buffer (120 mM NaCl, 1.3 mM CaCl2, 1.2 mM MgSO4, 4.8 mM KCl, 1.2 mM KH2PO4, 24 mM NaHCO3, pH 7.4) containing 2% BSA, with shaking at 100 cycles/min for 30 min at 37 °C. Adrenaline (15 μL, 0.2 mM) was then added to the mixtures, and the resultant solutions were then incubated for 3 h at 37 °C. The reaction mixture was subsequently centrifuged at 650× g for 10 min at 4 °C. FFA levels in the extracellular solutions were determined using an FFA measuring kit (NEFA C-test Wako) and the IC50 value, which is the 50% inhibitory concentration of FFA-release in each complex, was calculated. Glucose concentrations in the solutions with 20 μM Zn complexes were determined using a Fuji Dry Chem system (Fuji Medical Co., Tokyo, Japan) and then the glucose uptake quantities/(1.0 × 10^6 cells) in the 20 μM Zn complexes were calculated."}, "[6]": {"assay": "Organ distribution of Zn and Se by ICP-MS after 28 days oral treatment", "format": "in vivo, mice", "description": "as §1"}, "[7]": {"system": "type 2 diabetic ob/ob mice", "assay": "Daily oral treatment of ob/ob mice for 28 days: blood glucose, body weight, water intake", "format": "in vivo", "description": "The anti-diabetic effects of both [Zn(hmpt)2] and [Zn(hmps)2] were examined in ob/ob mice. The ob/ob and +/+ mice were used as type 2 diabetic and normal (non-diabetic) mice, respectively. The ob/ob (10-week-old) and +/+ (10-week-old) mice received daily oral treatment of either Zn complexes dissolved in PEG-400 or PEG-400 only, respectively. The mice received oral treatments of [Zn(hmpt)2] or [Zn(hmps)2] at doses of 2.5–10 mg Zn/kg or 1.0–5.0 mg Zn/kg for 28 days, respectively. Blood glucose levels (BGL) were measured using a Glucocard (Arkray, Kyoto, Japan) just before treatment with the Zn complexes, and the doses were regulated based on the BGL. Over 28 days, BGL, body weight, food intake, and water intake were measured every day. The number of normal mice (+/+ mice), control mice (ob/ob mice), [Zn(hmpt)2]-treated, and [Zn(hmps)2]-treated mice was 6, 8, 8, and 8 in the initial animal experiments, respectively. This was modified to 6, 6, 7, and 8 after the end of experiments as two control mice died naturally by the end of experiments, and one [Zn(hmpt)2]-treated mouse died from an accident during the oral glucose tolerance test."}, "[8]": {"system": "Isolated male Wistar rat epididymal adipocytes", "set-up": "method as in PMID 29843022", "details": "20 μM Zn complex, means ± SDs, three runs; cited from earlier work"}, "[9]": {"system": "Isolated male Wistar rat epididymal adipocytes", "set-up": "method as in PMID 29843022", "details": "adrenaline-stimulated, means ± SDs, three runs, read-out: IC50 of free fatty acid release; cited from earlier work"}}, "note": "Like-named read-outs stand apart in the source and are kept apart here."}
{"smiles": "Cc1occc(=S)c1[O-].Cc1occc(=S)c1[O-].[Zn+2]", "note": "[[Zn(hmpt)2], bis(3-hydroxy-2-methyl-4(H)-pyran-4-thiono)Zn]", "values": [{"measurement": "Area under the blood glucose concentration-time curve (AUC) in OGTT", "setting": "[1]; 1 g glucose/kg oral, after 28 days treatment, compared with control mice", "result": "significantly decreased"}, {"measurement": "Fasting blood glucose level (0 min of OGTT)", "setting": "[1]; ob/ob mice after 28 days oral treatment, 12-h fast, control 237 ± 52 mg/dL", "result": "143 ± 75", "unit": "mg/dL"}, {"measurement": "Glycogen content in the liver", "setting": "[2]; control 0.08 ± 0.04", "result": "0.03 ± 0.01", "unit": "mg/g liver"}, {"measurement": "TG content in the liver", "setting": "[2]; control 437 ± 139", "result": "309 ± 134", "unit": "mg/g liver"}, {"measurement": "ALP (plasma)", "setting": "[3]; mouse, in vivo, po", "result": "360 ± 88", "unit": "U/L"}, {"measurement": "ALT (plasma)", "setting": "[3]; mouse, in vivo, po", "result": "118 ± 68", "unit": "U/L"}, {"measurement": "AST (plasma)", "setting": "[3]; mouse, in vivo, po", "result": "103 ± 25", "unit": "U/L"}, {"measurement": "BUN (plasma)", "setting": "[3]; mouse, in vivo, po", "result": "23 ± 2 **^,## mg/dL"}, {"measurement": "Insulin (fasting plasma)", "setting": "[3]; ob/ob mice after 28 days oral treatment, control 2.2 ± 1.0", "result": "0.9 ± 0.3", "unit": "ng/mL"}, {"measurement": "HbA1c", "setting": "[3]; ob/ob mice after 28 days oral treatment, control 7.9 ± 0.8", "result": "6.5 ± 0.7 **^,## %"}, {"measurement": "Adiponectin (plasma)", "setting": "[3]; ob/ob mice after 28 days oral treatment, control 8.2 ± 1.1", "result": "9.4 ± 0.8", "unit": "µg/mL"}, {"measurement": "TG (plasma)", "setting": "[3]; ob/ob mice after 28 days oral treatment, control 83 ± 16", "result": "76 ± 25", "unit": "mg/dL"}, {"measurement": "T-CHO (plasma)", "setting": "[3]; ob/ob mice after 28 days oral treatment, control 195 ± 16", "result": "189 ± 42", "unit": "mg/dL"}, {"measurement": "Pancreatic islet numbers per section", "setting": "[4]; among normal, control and treated mice", "result": "not significantly changed"}, {"measurement": "Glycogen and fat deposition area ratio in the liver", "setting": "[4]; between control and treated mice", "result": "no significant differences"}, {"measurement": "Pancreatic islet area ratio and size", "setting": "[4]; compared with normal mice", "result": "significantly increased"}, {"measurement": "Glucose Uptake", "setting": "[5]", "result": "79 ± 26", "unit": "µg/10^6 Cells"}, {"measurement": "Se concentration, kidney", "setting": "[6]; dry tissue, ob/ob mice after 28 days oral treatment, control 6.4 ± 0.2", "result": "5.8 ± 0.5", "unit": "µg/g"}, {"measurement": "Zn concentration, kidney", "setting": "[6]; dry tissue, ob/ob mice after 28 days oral treatment, control 67 ± 3", "result": "73 ± 4", "unit": "µg/g"}, {"measurement": "Δ[Zn], bone", "setting": "[6]; mouse, in vivo, po", "result": 517, "unit": "nmol/g"}, {"measurement": "Δ[Zn], kidney", "setting": "[6]; mouse, in vivo, po", "result": 86, "unit": "nmol/g"}, {"measurement": "Δ[Zn], liver", "setting": "[6]; mouse, in vivo, po", "result": 453, "unit": "nmol/g"}, {"measurement": "Δ[Zn], pancreas", "setting": "[6]; mouse, in vivo, po", "result": 302, "unit": "nmol/g"}, {"measurement": "Δ[Zn], plasma", "setting": "[6]; mouse, in vivo, po", "result": 3, "unit": "nmol/g"}, {"measurement": "Blood glucose level by the end of treatment", "setting": "[7]; [Zn(hmpt)2] 2.5–10 mg Zn/kg, [Zn(hmps)2] 1.0–5.0 mg Zn/kg", "result": "approximately 200 mg/dL"}, {"measurement": "Water intake on the final day", "setting": "[7]; control 12.6 ± 1.6 g, p < 0.01 vs. control", "result": "7.5 ± 2.5", "unit": "g"}, {"measurement": "Body weight change during treatment", "setting": "[7]; loss seen day 22 to 25, recovered after dose reduction", "result": "body weight loss"}]}
{"smiles": "O.O.O.O.O.O.O.O=S(=O)([O-])[O-].[Zn+2]", "note": "[ZnSO4, Zinc sulfate heptahydrate, reference compound]", "values": [{"measurement": "Glucose Uptake", "setting": "[8]", "result": "none"}, {"measurement": "IC50", "setting": "[9]", "result": "585 ± 305", "unit": "µM"}]}
